Measured values: the supplement of paper PMC10627819

What was measured:
[1] = system: S. pneumoniae D39V; experiment: Bliss interaction score (quartile over a dose matrix) (fitness difference); higher = more antagonism (negative = synergy)
Procedure, shortened: (§1)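 Quartiles summarise the Bliss score over technical, biological and donor/recipient replicates, where the score is observed minus expected fitness under a product model. Expected fitness uses single-drug values inferred from combination data. Fitness is OD595 at entry into stationary phase over the plate's robust no-drug mean, capped at 1.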

[2] = system: S. aureus DSM 20231; experiment: as above
Procedure, shortened: as §1

[3] = system: S. aureus Newman; experiment: as above
Procedure, shortened: as §1

[4] = system: B. subtilis 168; experiment: as above
Procedure, shortened: as §1

[5] = system: S. aureus Newman; experiment: fitness (endpoint OD595 vs no drug) (fraction); higher = more growth
Procedure, shortened: (§2)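 Background-subtracted growth curves were the basis for fitness, taken as the optical density at entry into stationary phase over the robust mean of no-drug control wells. A cap of 1 was applied. The curves came from OD595 readings every 30 min for 14 h at 37 °C, in 384-well plates seeded at OD595 0.01 with 30 µl, or 55 µl for S. pneumoniae.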

[6] = system: B. subtilis 168; experiment: as above
Procedure, shortened: as §2
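Wherever Bliss interaction score (quartile over a dose matrix) is given: first quartile when negative (synergy) and third quartile when positive (antagonism).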

CC[C@H]1OC(=O)[C@H](C)[C@@H](O[C@H]2C[C@@](C)(OC)[C@@H](O)[C@H](C)O2)[C@H](C)[C@@H](O[C@@H]2O[C@H](C)C[C@H](N(C)C)[C@H]2O)[C@](C)(O)C[C@@H](C)CN(C)[C@H](C)[C@@H](O)[C@]1(C)O [Azithromycin] + CC1=C(C(=O)O)N2C(=O)[C@@H](NC(=O)[C@H](N)c3ccccc3)[C@H]2SC1 [Cephalexin]
Conditions	Bliss interaction score
[1]	-0.0716
[2]	-0.0843
[3]	0.0763
[4]	0.0757

fitness
Conditions	partner 0.125 µg/mL	partner 0.25 µg/mL	partner 0.5 µg/mL	partner 1 µg/mL
[5], first compound 0.125 µg/mL	–	0.892	0.918	0.907
[5], first compound 0.25 µg/mL	–	0.893	0.915	0.913
[5], first compound 0.5 µg/mL	–	0.739	0.719	0.728
[6], first compound 0.25 µg/mL	0.856	0.936	0.899	≥ 1
[6], first compound 0.5 µg/mL	0.823	0.845	0.849	0.867
[6], first compound 1 µg/mL	0.543	–	–	–

CC[C@H]1OC(=O)[C@H](C)[C@@H](O[C@H]2C[C@@](C)(OC)[C@@H](O)[C@H](C)O2)[C@H](C)[C@@H](O[C@@H]2O[C@H](C)C[C@H](N(C)C)[C@H]2O)[C@](C)(O)C[C@@H](C)CN(C)[C@H](C)[C@@H](O)[C@]1(C)O [Azithromycin] + CC(C1CCC(C(O1)OC2C(CC(C(C2O)OC3C(C(C(CO3)(C)O)NC)O)N)N)N)NC [Gentamicin]
main component drawn
Conditions	Bliss interaction score
[1]	-0.0659
[2]	0.106
[3]	0.118
[4]	0.305

fitness, one replicate, main component drawn
Conditions	partner 0.0625 µg/mL	partner 0.125 µg/mL	partner 0.25 µg/mL	partner 0.375 µg/mL	partner 0.75 µg/mL	partner 1.5 µg/mL
[5], first compound 0.125 µg/mL	–	–	–	0.946	0.936	0.954
[5], first compound 0.25 µg/mL	–	–	–	≥ 1	0.943	0.911
[5], first compound 0.5 µg/mL	–	–	–	0.711	0.62	0.571
[6], first compound 2 µg/mL	0.482	0.322	0.337	–	–	–

fitness, main component drawn
Conditions	first compound 0.125 µg/mL	first compound 0.25 µg/mL	first compound 0.5 µg/mL
[5], partner 0.5 µg/mL	0.879	0.851	0.742
[5], partner 1 µg/mL	0.899	0.901	0.827
[5], partner 2 µg/mL	0.942	0.958	0.79
[6], partner 0.0625 µg/mL	–	0.847	–

CC[C@H]1OC(=O)[C@H](C)[C@@H](O[C@H]2C[C@@](C)(OC)[C@@H](O)[C@H](C)O2)[C@H](C)[C@@H](O[C@@H]2O[C@H](C)C[C@H](N(C)C)[C@H]2O)[C@](C)(O)C[C@@H](C)CN(C)[C@H](C)[C@@H](O)[C@]1(C)O [Azithromycin] + CC[C@H](C)[C@H](N)C1=N[C@H](C(=O)N[C@@H](CC(C)C)C(=O)N[C@H](CCC(=O)O)C(=O)N[C@H](C(=O)N[C@H]2CCCCNC(=O)[C@H](CC(N)=O)NC(=O)[C@@H](CC(=O)O)NC(=O)[C@H](Cc3cnc[nH]3)NC(=O)[C@@H](Cc3ccccc3)NC(=O)[C@H]([C@@H](C)CC)NC(=O)[C@@H](CCCN)NC2=O)[C@@H](C)CC)CS1 [Bacitracin]
main component drawn
Conditions	Bliss interaction score
[1]	0.0418
[2]	-0.0556
[3]	-0.101
[4]	0.0819

fitness, main component drawn
Conditions	partner 18.75 µg/mL	partner 37.5 µg/mL	partner 75 µg/mL	partner 150 µg/mL
[5], first compound 0.125 µg/mL	0.654	–	0.0145	–
[5], first compound 0.25 µg/mL	–	0.0979	0.0091	–
[5], first compound 0.5 µg/mL	–	0.0136	0.0029	–
[6], first compound 0.25 µg/mL	–	0.907	0.845	0.837
[6], first compound 0.5 µg/mL	–	0.773	0.76	–

[6], first compound 2 µg/mL, one replicate, main component drawn
Conditions	fitness
partner 37.5 µg/mL	0.0502
partner 75 µg/mL	0.0262
partner 150 µg/mL	0.0177

CC[C@H]1OC(=O)[C@H](C)[C@@H](O[C@H]2C[C@@](C)(OC)[C@@H](O)[C@H](C)O2)[C@H](C)[C@@H](O[C@@H]2O[C@H](C)C[C@H](N(C)C)[C@H]2O)[C@](C)(O)C[C@@H](C)CN(C)[C@H](C)[C@@H](O)[C@]1(C)O [Azithromycin] + CN(C)c1cc(NC(=O)CNC(C)(C)C)c(O)c2c1C[C@H]1C[C@H]3[C@H](N(C)C)C(O)=C(C(N)=O)C(=O)[C@@]3(O)C(O)=C1C2=O [Tigecycline]
Conditions	Bliss interaction score
[1]	-0.0801
[2]	-0.0977
[3]	-0.0615
[4]	0.0692

fitness
Conditions	partner 0.039 µg/mL	partner 0.078 µg/mL	partner 0.156 µg/mL
[5], first compound 0.125 µg/mL	0.892	0.908	0.855
[5], first compound 0.25 µg/mL	0.88	0.868	0.912
[5], first compound 0.5 µg/mL	0.641	0.666	0.622
[6], first compound 0.25 µg/mL	0.979	0.873	0.887
[6], first compound 0.5 µg/mL	0.886	0.811	0.839

fitness, [6], one replicate
Conditions	first compound 0.5 µg/mL	first compound 1 µg/mL	first compound 2 µg/mL
partner 0.125 µg/mL	0.894	0.947	0.614
partner 0.25 µg/mL	0.889	0.871	0.48
partner 0.5 µg/mL	0.941	0.826	0.332

CC[C@H]1OC(=O)[C@H](C)[C@@H](O[C@H]2C[C@@](C)(OC)[C@@H](O)[C@H](C)O2)[C@H](C)[C@@H](O[C@@H]2O[C@H](C)C[C@H](N(C)C)[C@H]2O)[C@](C)(O)C[C@@H](C)CN(C)[C@H](C)[C@@H](O)[C@]1(C)O [Azithromycin] + CN[C@@H]1[C@H](O[C@H]2[C@H](O[C@H]3[C@H](O)[C@@H](O)[C@H](N=C(N)N)[C@@H](O)[C@@H]3N=C(N)N)O[C@@H](C)[C@]2(O)C=O)O[C@@H](CO)[C@H](O)[C@H]1O [Streptomycin]
Conditions	Bliss interaction score
[1]	-0.0455
[2]	0.108
[3]	0.102
[4]	0.206

fitness
Conditions	first compound 0.125 µg/mL	first compound 0.25 µg/mL	first compound 0.5 µg/mL
[5], partner 1 µg/mL	0.881	0.849	–
[6], partner 2 µg/mL	–	0.943	0.843
[6], partner 4 µg/mL	–	0.807	0.739

CC[C@H]1OC(=O)[C@H](C)[C@@H](O[C@H]2C[C@@](C)(OC)[C@@H](O)[C@H](C)O2)[C@H](C)[C@@H](O[C@@H]2O[C@H](C)C[C@H](N(C)C)[C@H]2O)[C@](C)(O)C[C@@H](C)CN(C)[C@H](C)[C@@H](O)[C@]1(C)O [Azithromycin] + CO/N=C(\C(=O)N[C@@H]1C(=O)N2C(C(=O)O)=C(COC(N)=O)CS[C@H]12)c1ccco1 [Cefuroxime]
Conditions	Bliss interaction score
[1]	0.0571
[2]	-0.24
[3]	0.0821
[4]	0.0595

fitness, one replicate
Conditions	partner 0.04875 µg/mL	partner 0.0975 µg/mL	partner 0.195 µg/mL	partner 1.562 µg/mL	partner 3.125 µg/mL	partner 6.25 µg/mL
[5], first compound 0.125 µg/mL	0.967	0.894	0.876	–	–	–
[5], first compound 0.25 µg/mL	0.897	0.878	0.802	–	–	–
[5], first compound 0.5 µg/mL	0.653	0.612	0.547	–	–	–
[6], first compound 0.25 µg/mL	0.867	0.81	–	0.293	0.262	0.222
[6], first compound 0.5 µg/mL	–	–	–	0.242	0.146	0.0811
[6], first compound 1 µg/mL	–	–	–	0.0319	0.0369	0.0154
[6], first compound 2 µg/mL	0.0565	0.0607	0.0393	–	–	–

fitness, [6]
Conditions	partner 0.04875 µg/mL	partner 0.0975 µg/mL	partner 0.195 µg/mL	partner 0.39 µg/mL	partner 0.78 µg/mL
first compound 0.25 µg/mL	–	–	0.556	0.353	0.305
first compound 0.5 µg/mL	0.708	0.609	–	0.35	0.312
first compound 1 µg/mL	0.463	0.361	0.215	0.171	0.16

CC[C@H]1OC(=O)[C@H](C)[C@@H](O[C@H]2C[C@@](C)(OC)[C@@H](O)[C@H](C)O2)[C@H](C)[C@@H](O[C@@H]2O[C@H](C)C[C@H](N(C)C)[C@H]2O)[C@](C)(O)C[C@@H](C)CN(C)[C@H](C)[C@@H](O)[C@]1(C)O [Azithromycin] + O=C(O)c1cn(C2CC2)c2cc(N3CCNCC3)c(F)cc2c1=O [Ciprofloxacin]
Conditions	Bliss interaction score
[1]	-0.0524
[2]	0.105
[3]	0.102
[4]	0.228

fitness
Conditions	first compound 0.125 µg/mL	first compound 0.25 µg/mL	first compound 0.5 µg/mL
[5], partner 0.0375 µg/mL	0.684	0.697	0.547
[5], partner 0.075 µg/mL	0.631	0.697	0.581
[6], partner 0.0098 µg/mL	–	0.886	–
[6], partner 0.0195 µg/mL	–	0.781	0.702

[6], first compound 2 µg/mL, one replicate
Conditions	fitness
partner 0.0098 µg/mL	0.428
partner 0.0195 µg/mL	0.279
partner 0.039 µg/mL	0.258
